Experimental data: ChEMBL document CHEMBL1201861, “Genomics of Drug Sensitity in Cancer screening data, Wellcome Trust Sanger Institute”

What follows are compounds tested on G-402 (assay: cells). Settings: Homo sapiens, G-402.
Format: functional, cell-based, Homo sapiens
Description: SANGER: Inhibition of human G-402 cell growth in a cell viability assay.

Structure (SMILES)	IC50
Nc1ccn([C@@H]2O[C@H](CO)[C@@H](O)C2(F)F)c(=O)n1 [GEMCITABINE]	< 4 nM

Each compound was assayed on HuO-3N1 (assay: cells). Settings: Homo sapiens, HuO-3N1.
Format: functional, cell-based, Homo sapiens
Description: SANGER: Inhibition of human HuO-3N1 cell growth in a cell viability assay.

Structure (SMILES)	IC50
Nc1ccn([C@@H]2O[C@H](CO)[C@@H](O)C2(F)F)c(=O)n1 [GEMCITABINE]	> 1020 nM

These compounds were tested on SW1990 (assay: cells). Settings: Homo sapiens, SW1990.
Format: functional, cell-based, Homo sapiens
Description: SANGER: Inhibition of human SW1990 cell growth in a cell viability assay.

Structure (SMILES)	IC50
Nc1ccn([C@@H]2O[C@H](CO)[C@@H](O)C2(F)F)c(=O)n1 [GEMCITABINE]	113 nM

These compounds were tested on MRK-nu-1 (assay: cells). Settings: Homo sapiens, MRK-nu-1.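 Note: cell viability assay measuring growth suppression of human MRK-nu-1 cells.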
Format: functional, cell-based, Homo sapiens
Description: SANGER: Inhibition of human MRK-nu-1 cell growth in a cell viability assay.

Structure (SMILES)	IC50
Nc1ccn([C@@H]2O[C@H](CO)[C@@H](O)C2(F)F)c(=O)n1 [GEMCITABINE]	2.57 nM

What follows are compounds tested on IM-9 (assay: SANGER: Inhibition of human IM-9 cell growth in a cell viability assay.). Settings: Homo sapiens, IM-9.
Format: functional, cell-based

Structure (SMILES)	IC50
Nc1ccn([C@@H]2O[C@H](CO)[C@@H](O)C2(F)F)c(=O)n1 [GEMCITABINE]	347 nM

Each compound was assayed on NCI-H1882 (assay: cells). Settings: Homo sapiens, NCI-H1882.
Format: functional, cell-based, Homo sapiens
Description: SANGER: Inhibition of human NCI-H1882 cell growth in a cell viability assay.

Structure (SMILES)	IC50
Nc1ccn([C@@H]2O[C@H](CO)[C@@H](O)C2(F)F)c(=O)n1 [GEMCITABINE]	82.4 nM

The compounds below were run on IST-SL2 (assay: cells). Settings: Homo sapiens, IST-SL2.
Format: functional, cell-based, Homo sapiens
Description: SANGER: Inhibition of human IST-SL2 cell growth in a cell viability assay.

Structure (SMILES)	IC50
Nc1ccn([C@@H]2O[C@H](CO)[C@@H](O)C2(F)F)c(=O)n1 [GEMCITABINE]	< 4 nM

These compounds were tested on HuP-T4 (assay: cells). Settings: Homo sapiens, HuP-T4.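 Note: cell viability assay measuring how much HuP-T4 cell growth is inhibited.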
Format: functional, cell-based, Homo sapiens
Description: SANGER: Inhibition of human HuP-T4 cell growth in a cell viability assay.

Structure (SMILES)	IC50
Nc1ccn([C@@H]2O[C@H](CO)[C@@H](O)C2(F)F)c(=O)n1 [GEMCITABINE]	27.3 nM

What follows are compounds tested on SW1710 (assay: cells). Settings: Homo sapiens, SW1710.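 Note: growth inhibition of SW1710 cells, determined with a cell viability assay.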
Format: functional, cell-based, Homo sapiens
Description: SANGER: Inhibition of human SW1710 cell growth in a cell viability assay.

Structure (SMILES)	IC50
Nc1ccn([C@@H]2O[C@H](CO)[C@@H](O)C2(F)F)c(=O)n1 [GEMCITABINE]	< 4 nM

These compounds were tested on VM-CUB-1 (assay: cells). Settings: Homo sapiens, VM-CUB-1.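 Note: cell viability assay measuring growth inhibition of the human VM-CUB-1 cell line.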
Format: functional, cell-based, Homo sapiens
Description: SANGER: Inhibition of human VM-CUB-1 cell growth in a cell viability assay.

Structure (SMILES)	IC50
Nc1ccn([C@@H]2O[C@H](CO)[C@@H](O)C2(F)F)c(=O)n1 [GEMCITABINE]	34.7 nM

These compounds were tested on RVH-421 (assay: cells). Settings: Homo sapiens, RVH-421.
Format: functional, cell-based, Homo sapiens
Description: SANGER: Inhibition of human RVH-421 cell growth in a cell viability assay.

Structure (SMILES)	IC50
Nc1ccn([C@@H]2O[C@H](CO)[C@@H](O)C2(F)F)c(=O)n1 [GEMCITABINE]	> 1020 nM

What follows are compounds tested on HCC1569 (assay: cells). Settings: Homo sapiens, HCC1569.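 Note: growth inhibition of human HCC1569 cells, read out with a cell viability assay.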
Format: functional, cell-based, Homo sapiens
Description: SANGER: Inhibition of human HCC1569 cell growth in a cell viability assay.

Structure (SMILES)	IC50
Nc1ccn([C@@H]2O[C@H](CO)[C@@H](O)C2(F)F)c(=O)n1 [GEMCITABINE]	109 nM

Each compound was assayed on T47D (assay: cells). Settings: Homo sapiens, T47D.
Format: functional, cell-based, Homo sapiens
Description: SANGER: Inhibition of human T47D cell growth in a cell viability assay.

Structure (SMILES)	IC50
Nc1ccn([C@@H]2O[C@H](CO)[C@@H](O)C2(F)F)c(=O)n1 [GEMCITABINE]	> 1020 nM

What follows are compounds tested on NCI-H2141 (assay: cells). Settings: Homo sapiens, NCI-H2141.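 Note: growth inhibition of human NCI-H2141 cells, read out with a cell viability assay.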
Format: functional, cell-based, Homo sapiens
Description: SANGER: Inhibition of human NCI-H2141 cell growth in a cell viability assay.

Structure (SMILES)	IC50
Nc1ccn([C@@H]2O[C@H](CO)[C@@H](O)C2(F)F)c(=O)n1 [GEMCITABINE]	644 nM

What follows are compounds tested on CAL-54 (assay: cells). Settings: Homo sapiens, CAL-54.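 Note: growth inhibition of CAL-54 cells, read out by a viability measurement.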
Format: functional, cell-based, Homo sapiens
Description: SANGER: Inhibition of human CAL-54 cell growth in a cell viability assay.

Structure (SMILES)	IC50
Nc1ccn([C@@H]2O[C@H](CO)[C@@H](O)C2(F)F)c(=O)n1 [GEMCITABINE]	298 nM

These compounds were tested on P31-FUJ (assay: cells). Settings: Homo sapiens, P31-FUJ.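 Note: growth inhibition of P31-FUJ cells, read out with a viability assay.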
Format: functional, cell-based, Homo sapiens
Description: SANGER: Inhibition of human P31-FUJ cell growth in a cell viability assay.

Structure (SMILES)	IC50
Nc1ccn([C@@H]2O[C@H](CO)[C@@H](O)C2(F)F)c(=O)n1 [GEMCITABINE]	> 1020 nM

The compounds below were run on CAL-12T (assay: cells). Settings: Homo sapiens, CAL-12T.
Format: functional, cell-based, Homo sapiens
Description: SANGER: Inhibition of human CAL-12T cell growth in a cell viability assay.

Structure (SMILES)	IC50
Nc1ccn([C@@H]2O[C@H](CO)[C@@H](O)C2(F)F)c(=O)n1 [GEMCITABINE]	1.08 nM

Each compound was assayed on CA46 (assay: cells). Settings: Homo sapiens, CA46.
Format: functional, cell-based, Homo sapiens
Description: SANGER: Inhibition of human CA46 cell growth in a cell viability assay.

Structure (SMILES)	IC50
Nc1ccn([C@@H]2O[C@H](CO)[C@@H](O)C2(F)F)c(=O)n1 [GEMCITABINE]	293 nM

Each compound was assayed on KYSE-410 (assay: cells). Settings: Homo sapiens, KYSE-410.
Format: functional, cell-based, Homo sapiens
Description: SANGER: Inhibition of human KYSE-410 cell growth in a cell viability assay.

Structure (SMILES)	IC50
Nc1ccn([C@@H]2O[C@H](CO)[C@@H](O)C2(F)F)c(=O)n1 [GEMCITABINE]	55.9 nM

Each compound was assayed on SNU-C1 (assay: cells). Settings: Homo sapiens, SNU-C1.
Format: functional, cell-based, Homo sapiens
Description: SANGER: Inhibition of human SNU-C1 cell growth in a cell viability assay.

Structure (SMILES)	IC50
Nc1ccn([C@@H]2O[C@H](CO)[C@@H](O)C2(F)F)c(=O)n1 [GEMCITABINE]	> 1020 nM

The compounds below were run on Capan-2 (assay: cells). Settings: Homo sapiens, Capan-2.
Format: functional, cell-based, Homo sapiens
Description: SANGER: Inhibition of human Capan-2 cell growth in a cell viability assay.

Structure (SMILES)	IC50
Nc1ccn([C@@H]2O[C@H](CO)[C@@H](O)C2(F)F)c(=O)n1 [GEMCITABINE]	> 1020 nM

The compounds below were run on MHH-CALL-2 (assay: cells). Settings: Homo sapiens, MHH-CALL-2.
Format: functional, cell-based, Homo sapiens
Description: SANGER: Inhibition of human MHH-CALL-2 cell growth in a cell viability assay.

Structure (SMILES)	IC50
Nc1ccn([C@@H]2O[C@H](CO)[C@@H](O)C2(F)F)c(=O)n1 [GEMCITABINE]	1020 nM

The compounds below were run on ESS-1 (assay: cells). Settings: Homo sapiens, ESS-1.
Format: functional, cell-based, Homo sapiens
Description: SANGER: Inhibition of human ESS-1 cell growth in a cell viability assay.

Structure (SMILES)	IC50
Nc1ccn([C@@H]2O[C@H](CO)[C@@H](O)C2(F)F)c(=O)n1 [GEMCITABINE]	< 4 nM

The compounds below were run on NCI-H1417 (assay: cells). Settings: Homo sapiens, NCI-H1417.
Format: functional, cell-based, Homo sapiens
Description: SANGER: Inhibition of human NCI-H1417 cell growth in a cell viability assay.

Structure (SMILES)	IC50
Nc1ccn([C@@H]2O[C@H](CO)[C@@H](O)C2(F)F)c(=O)n1 [GEMCITABINE]	> 1020 nM

These compounds were tested on 5637 (assay: cells). Settings: Homo sapiens.
Format: functional, cell-based, Homo sapiens
Description: SANGER: Inhibition of human 5637 cell growth in a cell viability assay.

Structure (SMILES)	IC50
Nc1ccn([C@@H]2O[C@H](CO)[C@@H](O)C2(F)F)c(=O)n1 [GEMCITABINE]	> 1020 nM

These compounds were tested on OVCAR-5 (assay: cells). Settings: Homo sapiens, OVCAR-5.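 Note: growth inhibition of human OVCAR-5 cells, read out with a cell viability assay.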
Format: functional, cell-based, Homo sapiens
Description: SANGER: Inhibition of human OVCAR-5 cell growth in a cell viability assay.

Structure (SMILES)	IC50
Nc1ccn([C@@H]2O[C@H](CO)[C@@H](O)C2(F)F)c(=O)n1 [GEMCITABINE]	306 nM

These compounds were tested on NCI-H345 (assay: cells). Settings: Homo sapiens, NCI-H345.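 Note: growth inhibition of NCI-H345 cells measured with a cell viability assay.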
Format: functional, cell-based, Homo sapiens
Description: SANGER: Inhibition of human NCI-H345 cell growth in a cell viability assay.

Structure (SMILES)	IC50
Nc1ccn([C@@H]2O[C@H](CO)[C@@H](O)C2(F)F)c(=O)n1 [GEMCITABINE]	> 1020 nM

What follows are compounds tested on COLO-792 (assay: cells). Settings: Homo sapiens, COLO-792.
Format: functional, cell-based, Homo sapiens
Description: SANGER: Inhibition of human COLO-792 cell growth in a cell viability assay.

Structure (SMILES)	IC50
Nc1ccn([C@@H]2O[C@H](CO)[C@@H](O)C2(F)F)c(=O)n1 [GEMCITABINE]	> 1020 nM

Each compound was assayed on HCC70 (assay: cells). Settings: Homo sapiens, HCC70.
Format: functional, cell-based, Homo sapiens
Description: SANGER: Inhibition of human HCC70 cell growth in a cell viability assay.

Structure (SMILES)	IC50
Nc1ccn([C@@H]2O[C@H](CO)[C@@H](O)C2(F)F)c(=O)n1 [GEMCITABINE]	> 1020 nM

The compounds below were run on MDA-MB-157 (assay: cells). Settings: Homo sapiens, MDA-MB-157.
Format: functional, cell-based, Homo sapiens
Description: SANGER: Inhibition of human MDA-MB-157 cell growth in a cell viability assay.

Structure (SMILES)	IC50
Nc1ccn([C@@H]2O[C@H](CO)[C@@H](O)C2(F)F)c(=O)n1 [GEMCITABINE]	> 1020 nM

These compounds were tested on EFO-27 (assay: cells). Settings: Homo sapiens, EFO-27.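 Note: growth inhibition of EFO-27 cells, read out with a cell viability assay.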
Format: functional, cell-based, Homo sapiens
Description: SANGER: Inhibition of human EFO-27 cell growth in a cell viability assay.

Structure (SMILES)	IC50
Nc1ccn([C@@H]2O[C@H](CO)[C@@H](O)C2(F)F)c(=O)n1 [GEMCITABINE]	9.05 nM

Each compound was assayed on UO-31 (assay: cells). Settings: Homo sapiens, UO-31.
Format: functional, cell-based, Homo sapiens
Description: SANGER: Inhibition of human U031 cell growth in a cell viability assay.

Structure (SMILES)	IC50
Nc1ccn([C@@H]2O[C@H](CO)[C@@H](O)C2(F)F)c(=O)n1 [GEMCITABINE]	< 4 nM

These compounds were tested on SN12C (assay: cells). Settings: Homo sapiens, SN12C.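 Note: growth inhibition of human SN12C cells, measured by a cell viability assay.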
Format: functional, cell-based, Homo sapiens
Description: SANGER: Inhibition of human SN12C cell growth in a cell viability assay.

Structure (SMILES)	IC50
Nc1ccn([C@@H]2O[C@H](CO)[C@@H](O)C2(F)F)c(=O)n1 [GEMCITABINE]	497 nM

The compounds below were run on T-24 (assay: cells). Settings: Homo sapiens, T-24.
Format: functional, cell-based, Homo sapiens
Description: SANGER: Inhibition of human T-24 cell growth in a cell viability assay.

Structure (SMILES)	IC50
Nc1ccn([C@@H]2O[C@H](CO)[C@@H](O)C2(F)F)c(=O)n1 [GEMCITABINE]	> 1020 nM

What follows are compounds tested on LCLC-97TM1 (assay: cells). Settings: Homo sapiens, LCLC-97TM1.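 Note: cell viability assay measuring growth inhibition of human LCLC-97TM1 cells.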
Format: functional, cell-based, Homo sapiens
Description: SANGER: Inhibition of human LCLC-97TM1 cell growth in a cell viability assay.

Structure (SMILES)	IC50
Nc1ccn([C@@H]2O[C@H](CO)[C@@H](O)C2(F)F)c(=O)n1 [GEMCITABINE]	< 4 nM

These compounds were tested on IGROV-1 (assay: cells). Settings: Homo sapiens, IGROV-1.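 Note: reduction of IGROV-1 cell growth, read out with a viability assay.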
Format: functional, cell-based, Homo sapiens
Description: SANGER: Inhibition of human IGROV-1 cell growth in a cell viability assay.

Structure (SMILES)	IC50
Nc1ccn([C@@H]2O[C@H](CO)[C@@H](O)C2(F)F)c(=O)n1 [GEMCITABINE]	< 4 nM

These compounds were tested on NCI-H889 (assay: cells). Settings: Homo sapiens, NCI-H889.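 Note: cell growth inhibition of the cell line, read out with a viability assay.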
Format: functional, cell-based, Homo sapiens
Description: SANGER: Inhibition of human NCI-H889 cell growth in a cell viability assay.

Structure (SMILES)	IC50
Nc1ccn([C@@H]2O[C@H](CO)[C@@H](O)C2(F)F)c(=O)n1 [GEMCITABINE]	> 1020 nM

The compounds below were run on SW1463 (assay: cells). Settings: Homo sapiens, SW1463.
Format: functional, cell-based, Homo sapiens
Description: SANGER: Inhibition of human SW1463 cell growth in a cell viability assay.

Structure (SMILES)	IC50
Nc1ccn([C@@H]2O[C@H](CO)[C@@H](O)C2(F)F)c(=O)n1 [GEMCITABINE]	510 nM

These compounds were tested on SK-MES-1 (assay: cells). Settings: Homo sapiens, SK-MES-1.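 Note: growth inhibition of human SK-MES-1 cells, read out with a cell viability assay.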
Format: functional, cell-based, Homo sapiens
Description: SANGER: Inhibition of human SK-MES-1 cell growth in a cell viability assay.

Structure (SMILES)	IC50
Nc1ccn([C@@H]2O[C@H](CO)[C@@H](O)C2(F)F)c(=O)n1 [GEMCITABINE]	< 4 nM

Each compound was assayed on NCI-H520 (assay: cells). Settings: Homo sapiens, NCI-H520.
Format: functional, cell-based, Homo sapiens
Description: SANGER: Inhibition of human NCI-H520 cell growth in a cell viability assay.

Structure (SMILES)	IC50
Nc1ccn([C@@H]2O[C@H](CO)[C@@H](O)C2(F)F)c(=O)n1 [GEMCITABINE]	18.8 nM

What follows are compounds tested on SW756 (assay: cells). Settings: Homo sapiens, SW756.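 Note: growth inhibition of human SW756 cells, read out with a cell viability assay.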
Format: functional, cell-based, Homo sapiens
Description: SANGER: Inhibition of human SW756 cell growth in a cell viability assay.

Structure (SMILES)	IC50
Nc1ccn([C@@H]2O[C@H](CO)[C@@H](O)C2(F)F)c(=O)n1 [GEMCITABINE]	45.1 nM

The compounds below were run on GDM-1 (assay: cells). Settings: Homo sapiens, GDM-1.
Format: functional, cell-based, Homo sapiens
Description: SANGER: Inhibition of human GDM-1 cell growth in a cell viability assay.

Structure (SMILES)	IC50
Nc1ccn([C@@H]2O[C@H](CO)[C@@H](O)C2(F)F)c(=O)n1 [GEMCITABINE]	62.5 nM

Each compound was assayed on PANC-03-27 (assay: cells). Settings: Homo sapiens, PANC-03-27.
Format: functional, cell-based, Homo sapiens
Description: SANGER: Inhibition of human PANC-03-27 cell growth in a cell viability assay.

Structure (SMILES)	IC50
Nc1ccn([C@@H]2O[C@H](CO)[C@@H](O)C2(F)F)c(=O)n1 [GEMCITABINE]	3.51 nM

The compounds below were run on NCI-H28 (assay: cells). Settings: Homo sapiens, NCI-H28.
Format: functional, cell-based, Homo sapiens
Description: SANGER: Inhibition of human NCI-H28 cell growth in a cell viability assay.

Structure (SMILES)	IC50
Nc1ccn([C@@H]2O[C@H](CO)[C@@H](O)C2(F)F)c(=O)n1 [GEMCITABINE]	> 1020 nM
